Measured values published in PMC5980259, “GI‐530159, a novel, selective, mechanosensitive two‐pore‐domain potassium (K2P) channel opener, reduces rat dorsal root ganglion neuron excitability” (British Journal of Pharmacology, 2017).

Key:
hTRAAK = target: T1, hTRAAK (Homo sapiens, UniProt Q9NYG8); test: Whole-cell patch clamp, transiently transfected tsA-201 cells, TRAAK; type: cell-based
T1 construct: expressed in transfected cells; host or cells: tsA-201, transient, pcDNA3.1 vector
T1 sequence (Q9NYG8 1-393): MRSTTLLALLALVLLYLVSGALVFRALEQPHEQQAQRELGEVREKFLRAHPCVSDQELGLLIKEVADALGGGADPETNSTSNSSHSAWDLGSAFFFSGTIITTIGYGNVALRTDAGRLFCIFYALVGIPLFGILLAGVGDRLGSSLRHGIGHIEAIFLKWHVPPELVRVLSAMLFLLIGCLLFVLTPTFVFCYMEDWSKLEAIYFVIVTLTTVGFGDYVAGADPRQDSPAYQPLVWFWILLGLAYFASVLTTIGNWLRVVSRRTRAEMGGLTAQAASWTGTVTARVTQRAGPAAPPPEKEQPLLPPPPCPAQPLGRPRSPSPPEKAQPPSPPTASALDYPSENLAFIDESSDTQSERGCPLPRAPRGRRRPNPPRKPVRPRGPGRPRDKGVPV
Experimental: (§1) Recordings of hTREK1, hTREK1∆N, hTREK2, hTRAAK and […] currents from transiently transfected tsA‐201 cells were performed using methods as described in Veale and Mathie (2016). Briefly, the pcDNA3.1 vector was cloned with the gene of interest, and these vectors and a similar vector containing GFP were incorporated into the tsA201 cells (0.5 μg per well) using the calcium phosphate method. The cells were incubated for 6–12 h at 37°C in […] and 5% carbon dioxide. Cells were then washed using a PBS solution and used for experiments after 24 h.
(§2) Currents were recorded using whole‐cell patch‐clamp using an Axopatch 1D amplifier. Cells were placed in a recording chamber filled with an external medium composed of 145 mM, NaCl, 2.5 mM KCl, 3 mM MgCl2, 1 mM CaCl2 and 10 mM HEPES (pH to 7.4, using NaOH). The internal medium used in the glass pipette comprised 150 mM KCl, 3 mM MgCl2, 5 mM (or 0.1 mM) EGTA and 10 mM HEPES (pH to 7.4, using KOH). GI‐530159 was applied by bath perfusion. Currents were recorded and analysed using pCLAMP 10.2 software Microsoft Excel. The voltage protocol used for recording current through K2P channels was as previously described (Veale and Mathie, 2016). For analysis, we measured the current difference between the −80 and −40 mV steps.

hTREK2 = target: T2, hTREK2 (Homo sapiens, UniProt P57789); test: Whole-cell patch clamp, transiently transfected tsA-201 cells, TREK2; type: cell-based; conditions: 1 μM, n = 6
T2 construct: expressed in transfected cells; host or cells: tsA-201, transient, pcDNA3.1 vector
Experimental: as §1, §2

Kv11.1 (hERG) = Kv11.1 (hERG) (Homo sapiens, UniProt Q12809); conditions: 10 μM
Kv7.2 = Kv7.2 (Homo sapiens, UniProt O43526); test: Rb+ efflux assay, Kv7.2; type: cell-based
[1] = target: T3, human TREK1 single channels (Homo sapiens, UniProt O95069); test: Single-channel recording, excised inside-out patches from HEK293 cells; type: biochemical; conditions: 10 μM on intracellular side, +60 mV
T3 construct: expressed in transfected cells
Experimental: Human TREK1 single channels were recorded in excised inside‐out membrane patches using an Axopatch 200B patch‐clamp amplifier and pCLAMP 10 software. Inside‐out membrane patches were excised from HEK293 cells expressing human TREK1 channels. Sylguard® 184‐coated glass pipettes with resistance around 10–15 MΩ were used. Pipette and bath compositions for inside‐out patches were opposite to those used in voltage‐clamp, that is, the pipette solution on the extracellular face of the channels contained 130 mM K and the bath solution on the intracellular face of the channel contained 4.7 mM K. Channel activities were recorded at +60 mV. The action of a hTREK1 opener was tested by addition to the intracellular solution. Single‐channel records were filtered with an eight‐pole Bessel filter (model LHBF‐48X, npi electronic GmbH, Tamm, Germany) at a corner frequency (fc) of 2 kHz and acquired using a DigiData 1440A interface and pCLAMP 10 software at a sampling rate of 20 kHz. Single‐channel traces were generated without further filtering.

KCa1.1 (BK) = KCa1.1 (BK) (Homo sapiens, UniProt Q12791); test: Manual patch clamp in recombinant cell lines, BK; type: cell-based; conditions: 10 μM; n = 4
K2P18.1 (TRESK) = target: T4, K2P18.1 (TRESK) (Homo sapiens, UniProt Q7Z418); test: Manual patch clamp in recombinant cell lines, TRESK; type: cell-based; conditions: 10 μM; n = 4
T4 construct: expressed in transfected cells

THIK1 (K2P13.1) = target: T5, THIK1 (K2P13.1) (Homo sapiens, UniProt Q9HB14); test: Whole-cell patch clamp, THIK1 channels; type: cell-based; conditions: 1 μM; n = 7
T5 construct: expressed in transfected cells; host or cells: tsA-201, transient, pcDNA3.1 vector
Experimental: as §1, §2

T3 sequence (O95069 whole entry): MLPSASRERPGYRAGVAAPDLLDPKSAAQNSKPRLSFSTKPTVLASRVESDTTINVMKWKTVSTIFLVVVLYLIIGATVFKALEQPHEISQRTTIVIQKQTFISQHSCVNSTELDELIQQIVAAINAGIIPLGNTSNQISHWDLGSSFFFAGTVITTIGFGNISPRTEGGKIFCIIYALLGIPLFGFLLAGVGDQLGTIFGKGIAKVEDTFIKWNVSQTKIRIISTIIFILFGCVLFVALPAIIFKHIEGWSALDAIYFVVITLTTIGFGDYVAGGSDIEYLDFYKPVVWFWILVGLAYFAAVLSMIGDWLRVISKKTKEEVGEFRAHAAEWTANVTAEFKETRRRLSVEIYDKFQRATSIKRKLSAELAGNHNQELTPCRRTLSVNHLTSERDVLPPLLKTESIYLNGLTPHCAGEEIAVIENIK
T5 sequence (Q9HB14 whole entry): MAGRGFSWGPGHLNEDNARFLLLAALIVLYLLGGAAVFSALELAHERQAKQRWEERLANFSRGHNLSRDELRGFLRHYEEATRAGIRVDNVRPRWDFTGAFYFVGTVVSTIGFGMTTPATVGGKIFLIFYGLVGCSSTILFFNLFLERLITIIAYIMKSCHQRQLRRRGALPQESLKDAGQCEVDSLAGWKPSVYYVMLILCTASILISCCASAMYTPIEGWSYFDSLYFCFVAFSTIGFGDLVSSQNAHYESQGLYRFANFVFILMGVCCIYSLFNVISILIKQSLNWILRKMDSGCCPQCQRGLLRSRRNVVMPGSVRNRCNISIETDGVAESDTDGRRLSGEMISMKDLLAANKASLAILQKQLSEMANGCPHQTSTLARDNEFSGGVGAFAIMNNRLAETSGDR
T4 sequence (Q7Z418 whole entry, species assumed): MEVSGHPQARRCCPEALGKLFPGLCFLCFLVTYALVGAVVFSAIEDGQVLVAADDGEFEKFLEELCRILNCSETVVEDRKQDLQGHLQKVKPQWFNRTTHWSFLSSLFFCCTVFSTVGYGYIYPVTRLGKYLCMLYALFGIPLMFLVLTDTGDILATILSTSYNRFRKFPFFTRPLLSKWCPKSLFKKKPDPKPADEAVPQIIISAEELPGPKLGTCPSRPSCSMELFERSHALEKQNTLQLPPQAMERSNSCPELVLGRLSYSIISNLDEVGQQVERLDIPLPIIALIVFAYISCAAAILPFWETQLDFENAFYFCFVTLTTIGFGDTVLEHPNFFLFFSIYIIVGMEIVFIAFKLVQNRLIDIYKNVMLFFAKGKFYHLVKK
T2 sequence (P57789 whole entry): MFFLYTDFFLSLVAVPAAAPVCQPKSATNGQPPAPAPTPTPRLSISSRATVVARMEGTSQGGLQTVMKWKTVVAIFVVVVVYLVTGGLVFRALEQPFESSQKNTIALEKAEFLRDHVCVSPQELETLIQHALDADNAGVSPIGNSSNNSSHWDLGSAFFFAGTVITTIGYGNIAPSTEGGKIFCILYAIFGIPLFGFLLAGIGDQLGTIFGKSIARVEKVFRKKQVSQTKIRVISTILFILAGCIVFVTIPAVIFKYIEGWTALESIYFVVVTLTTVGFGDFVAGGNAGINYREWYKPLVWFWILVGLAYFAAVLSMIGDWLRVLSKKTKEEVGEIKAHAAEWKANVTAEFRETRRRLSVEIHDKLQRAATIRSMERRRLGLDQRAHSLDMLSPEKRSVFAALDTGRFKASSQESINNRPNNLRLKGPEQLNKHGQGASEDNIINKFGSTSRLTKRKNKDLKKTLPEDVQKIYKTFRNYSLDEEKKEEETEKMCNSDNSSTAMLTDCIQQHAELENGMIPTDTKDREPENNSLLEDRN
Sequence of Kv11.1 (hERG) (Q12809 whole entry): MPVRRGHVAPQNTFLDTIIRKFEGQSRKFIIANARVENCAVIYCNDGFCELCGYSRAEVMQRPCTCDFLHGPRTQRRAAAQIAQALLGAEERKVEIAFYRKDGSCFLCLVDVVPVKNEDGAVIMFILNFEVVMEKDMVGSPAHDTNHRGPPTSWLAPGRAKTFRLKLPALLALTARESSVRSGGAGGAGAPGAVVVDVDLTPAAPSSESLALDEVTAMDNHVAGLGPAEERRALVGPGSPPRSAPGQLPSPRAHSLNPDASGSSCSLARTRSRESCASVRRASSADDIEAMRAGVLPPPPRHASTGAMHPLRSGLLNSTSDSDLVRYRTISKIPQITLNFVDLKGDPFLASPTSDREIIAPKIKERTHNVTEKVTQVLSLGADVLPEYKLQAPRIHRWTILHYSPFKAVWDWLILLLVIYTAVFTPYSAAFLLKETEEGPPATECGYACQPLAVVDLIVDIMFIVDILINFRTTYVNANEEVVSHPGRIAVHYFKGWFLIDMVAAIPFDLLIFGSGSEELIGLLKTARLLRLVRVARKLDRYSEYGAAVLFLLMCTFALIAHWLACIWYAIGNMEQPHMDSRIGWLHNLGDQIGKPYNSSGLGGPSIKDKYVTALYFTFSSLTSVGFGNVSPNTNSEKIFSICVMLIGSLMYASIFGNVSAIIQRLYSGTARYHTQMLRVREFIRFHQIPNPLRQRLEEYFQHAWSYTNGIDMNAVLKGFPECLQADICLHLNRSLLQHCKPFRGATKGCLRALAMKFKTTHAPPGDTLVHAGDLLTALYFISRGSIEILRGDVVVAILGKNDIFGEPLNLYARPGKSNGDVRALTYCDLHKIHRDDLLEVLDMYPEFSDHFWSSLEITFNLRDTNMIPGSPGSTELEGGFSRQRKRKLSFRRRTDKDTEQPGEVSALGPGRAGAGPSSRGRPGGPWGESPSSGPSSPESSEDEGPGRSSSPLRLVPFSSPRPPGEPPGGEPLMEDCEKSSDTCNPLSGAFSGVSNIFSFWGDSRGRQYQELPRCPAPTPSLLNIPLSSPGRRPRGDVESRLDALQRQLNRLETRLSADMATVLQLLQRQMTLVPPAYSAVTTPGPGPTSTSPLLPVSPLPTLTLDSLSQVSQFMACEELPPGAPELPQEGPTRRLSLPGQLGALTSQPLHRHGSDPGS
Sequence of KCa1.1 (BK) (Q12791 whole entry, species assumed): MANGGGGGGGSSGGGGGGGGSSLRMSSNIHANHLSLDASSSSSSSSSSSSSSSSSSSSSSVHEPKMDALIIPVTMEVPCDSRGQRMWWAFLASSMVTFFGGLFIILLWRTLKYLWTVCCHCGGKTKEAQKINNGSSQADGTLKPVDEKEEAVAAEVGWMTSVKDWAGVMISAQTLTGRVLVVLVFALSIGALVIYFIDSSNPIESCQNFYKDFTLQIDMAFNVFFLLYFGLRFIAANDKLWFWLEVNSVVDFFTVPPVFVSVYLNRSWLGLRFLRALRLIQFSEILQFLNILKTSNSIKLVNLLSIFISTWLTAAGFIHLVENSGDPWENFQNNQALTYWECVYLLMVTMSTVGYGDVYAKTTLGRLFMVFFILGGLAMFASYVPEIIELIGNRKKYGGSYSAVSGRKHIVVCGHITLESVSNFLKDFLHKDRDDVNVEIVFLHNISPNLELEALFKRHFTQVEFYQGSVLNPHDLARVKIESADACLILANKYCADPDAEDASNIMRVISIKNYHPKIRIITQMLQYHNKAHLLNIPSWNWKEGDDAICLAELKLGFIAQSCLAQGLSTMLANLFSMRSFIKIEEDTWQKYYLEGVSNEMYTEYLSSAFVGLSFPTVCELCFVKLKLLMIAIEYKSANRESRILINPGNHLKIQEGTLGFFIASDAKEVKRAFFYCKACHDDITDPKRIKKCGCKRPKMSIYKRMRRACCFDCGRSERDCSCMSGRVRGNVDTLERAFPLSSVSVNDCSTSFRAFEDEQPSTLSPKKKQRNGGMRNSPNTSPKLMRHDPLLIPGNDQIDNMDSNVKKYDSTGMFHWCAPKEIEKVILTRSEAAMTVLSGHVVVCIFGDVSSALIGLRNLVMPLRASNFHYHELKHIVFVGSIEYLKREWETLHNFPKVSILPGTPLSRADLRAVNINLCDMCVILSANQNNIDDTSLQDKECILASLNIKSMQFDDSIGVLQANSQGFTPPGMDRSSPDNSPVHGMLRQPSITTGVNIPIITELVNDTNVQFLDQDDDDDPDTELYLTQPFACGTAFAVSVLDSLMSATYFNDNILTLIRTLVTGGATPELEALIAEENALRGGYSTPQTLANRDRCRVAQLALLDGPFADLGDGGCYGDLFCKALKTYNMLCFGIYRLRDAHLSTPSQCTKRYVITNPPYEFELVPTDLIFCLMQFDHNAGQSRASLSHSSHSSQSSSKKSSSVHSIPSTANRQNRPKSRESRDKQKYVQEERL

## Nc1ccc(Oc2ccc(C(c3ccc(Oc4ccc(N)cc4)cc3)(C(F)(F)F)C(F)(F)F)cc2)cc1 [GI‐530159, 4,4′‐(hexafluoroisopropylidene)bis(p‐phenyleneoxy)dianiline]
hTRAAK; 1 μM, tsA-201, n = 7
  enhancement of TRAAK current: 2 ± 10%
hTRAAK; 10 μM
  effect on TRAAK channels: no detectable effect
hTREK2
  enhancement of TREK2 current: 42 ± 6%
Kv11.1 (hERG)
  effect on Kv11.1 (hERG) current: −7.3 ± 5.1%
Kv7.2
  activator effect on Kv7.2: no activator effects
[1]
  single-channel current amplitude: not altered
[1]; exemplar recording, 0.009 before application
  channel open probability: 0.025
KCa1.1 (BK)
  effect on KCa1.1 (BK) current: −3.3 ± 6.7%
K2P18.1 (TRESK)
  effect on K2P18.1 (TRESK) current: −2.0 ± 3.5%
THIK1 (K2P13.1)
  effect on THIK1 (K2P13.1) current: 0 ± 3%
